Target: T1, hGIP-R (Homo sapiens, UniProt P48546)
T1 construct: expressed in transfected cells; host or cells: HEK-293 clonal cell lines
T1 sequence (P48546 22-466): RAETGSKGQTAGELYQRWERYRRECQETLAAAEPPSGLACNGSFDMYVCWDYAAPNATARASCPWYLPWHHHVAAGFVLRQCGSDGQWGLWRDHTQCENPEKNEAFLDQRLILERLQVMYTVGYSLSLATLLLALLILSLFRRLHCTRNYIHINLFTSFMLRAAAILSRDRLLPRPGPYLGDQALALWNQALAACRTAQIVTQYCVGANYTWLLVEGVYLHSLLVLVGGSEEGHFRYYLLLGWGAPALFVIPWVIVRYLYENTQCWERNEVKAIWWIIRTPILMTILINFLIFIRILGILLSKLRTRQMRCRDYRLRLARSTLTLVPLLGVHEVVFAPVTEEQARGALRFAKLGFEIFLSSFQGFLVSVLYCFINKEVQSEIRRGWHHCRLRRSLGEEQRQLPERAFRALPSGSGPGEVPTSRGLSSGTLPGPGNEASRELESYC
Experiment: Functional hGIP-R Assay (cAMP formation, HTRF)
Assay type: cell-based
Conditions: for Emax: cAMP efficacy, percent of maximal response to GIP(1-42)OH, 37° C., 0.1% bovine casein, arithmetic mean ± SEM; for EC50: cAMP potency, HEK-293 cells expressing hGIP-R, incubated at 37° C. in the presence of 0.1% bovine casein, geometric mean, read-out: Human GIP-R EC50, nM (SEM, n)
Summary of the method: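 HEK-293 cells expressing hGIP-R were given a 20-point compound series in DMEM with 0.1% casein, 250 μM IBMX, 1% DMSO, 30 min at 37 °C. cAMP was read by HTRF against a standard curve, expressed as % of human GIP (1-42) OH maximum; EC50 and Emax came from four-parameter fits.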

Compound	Emax	EC50
Cn1cc2cc(-c3ccc([C@H]4C[C@@]45CCN([C@H](Cc4cnn(C(F)F)c4)C(=O)NC(C)(C)Cn4nc(C(F)(F)F)cc4-c4ccc(OC(F)F)nn4)C5=O)cc3)cnc2n1 [Example 121, (R)-N-(1-(5-(6-(Difluoromethoxy)pyridazin-3-yl)-3-(trifluoromethyl)-1H-pyrazol-1-yl)-2-methylpropan-2-yl)-3-(1-(difluoromethyl)-1H-pyrazol-4-yl)-2-((1R,3R)-1-(4-(2-methyl-2H-pyrazolo[3,4-b]pyridin-5-yl)phenyl)-4-oxo-5-azaspiro[2.4]heptan-5-yl)propanamide]	74.6 ± 1.47%	107 nM
Cn1cc2cc(-c3ccc([C@H]4C[C@@]45CCN([C@H](Cc4cnn(C(F)F)c4)C(=O)NC(C)(C)Cn4nc(C(F)(F)F)cc4-c4cc(F)c(CO)cc4F)C5=O)cc3)cnc2n1 [Example 124, (R)-N-(1-(5-(2,5-Difluoro-4-(hydroxymethyl)phenyl)-3-(trifluoromethyl)-1H-pyrazol-1-yl)-2-methylpropan-2-yl)-3-(1-(difluoromethyl)-1H-pyrazol-4-yl)-2-((1R,3R)-1-(4-(2-methyl-2H-pyrazolo[3,4-b]pyridin-5-yl)phenyl)-4-oxo-5-azaspiro[2.4]heptan-5-yl)propanamide]	56.9 ± 11.2%	55.6 nM
Cn1cc2cc(-c3ccc([C@H]4C[C@@]45CCN([C@H](Cc4cnn(C(F)F)c4)C(=O)NC(C)(C)Cn4nc(C(F)(F)F)cc4-c4ccc(=O)n(CC(F)(F)F)c4)C5=O)cc3)cnc2n1 [Example 125, (R)-3-(1-(Difluoromethyl)-1H-pyrazol-4-yl)-N-(2-methyl-1-(5-(6-oxo-1-(2,2,2-trifluoroethyl)-1,6-dihydropyridin-3-yl)-3-(trifluoromethyl)-1H-pyrazol-1-yl)propan-2-yl)-2-((1R,3R)-1-(4-(2-methyl-2H-pyrazolo[3,4-b]pyridin-5-yl)phenyl)-4-oxo-5-azaspiro[2.4]heptan-5-yl)propanamide]	68.5 ± 6.59%	38.5 nM
Cn1cc2cc(-c3ccc([C@H]4C[C@@]45CCN([C@H](Cc4cnn(C(F)F)c4)C(=O)NC(C)(C)Cn4nc(C(F)(F)F)cc4-c4cccn(CC(N)=O)c4=O)C5=O)cc3)cnc2n1 [Example 126, (R)-N-(1-(5-(1-(2-Amino-2-oxoethyl)-2-oxo-1,2-dihydropyridin-3-yl)-3-(trifluoromethyl)-1H-pyrazol-1-yl)-2-methylpropan-2-yl)-3-(1-(difluoromethyl)-1H-pyrazol-4-yl)-2-((1R,3R)-1-(4-(2-methyl-2H-pyrazolo[3,4-b]pyridin-5-yl)phenyl)-4-oxo-5-azaspiro[2.4]heptan-5-yl)propanamide]	93.6 ± 1.06%	42.3 nM
Cc1c(-c2cc(C(F)(F)F)nn2CC(C)(C)NC(=O)[C@@H](Cc2cnn(C(F)F)c2)N2CC[C@@]3(C[C@@H]3c3ccc(-c4cnc5nn(C)cc5c4)cc3)C2=O)cn(C)c(=O)c1C#N [Example 128, (R)-N-(1-(5-(5-Cyano-1,4-dimethyl-6-oxo-1,6-dihydropyridin-3-yl)-3-(trifluoromethyl)-1H-pyrazol-1-yl)-2-methylpropan-2-yl)-3-(1-(difluoromethyl)-1H-pyrazol-4-yl)-2-((1R,3R)-1-(4-(2-methyl-2H-pyrazolo[3,4-b]pyridin-5-yl)phenyl)-4-oxo-5-azaspiro[2.4]heptan-5-yl)propanamide]	85.2 ± 1.24%	163 nM
Cn1cc2cc(-c3ccc([C@H]4C[C@@]45CCN([C@H](Cc4cnn(C(F)F)c4)C(=O)NC(C)(C)Cn4nc(C(F)(F)F)cc4-c4cn(C)c(=O)c6ccccc46)C5=O)cc3)cnc2n1 [Example 129, (R)-3-(1-(Difluoromethyl)-1H-pyrazol-4-yl)-N-(2-methyl-1-(5-(2-methyl-1-oxo-1,2-dihydroisoquinolin-4-yl)-3-(trifluoromethyl)-1H-pyrazol-1-yl)propan-2-yl)-2-((1R,3R)-1-(4-(2-methyl-2H-pyrazolo[3,4-b]pyridin-5-yl)phenyl)-4-oxo-5-azaspiro[2.4]heptan-5-yl)propanamide]	78.6 ± 6.28%	138 nM
Cn1cc2cc(-c3ccc([C@H]4C[C@@]45CCN([C@H](Cc4cnn(C(F)F)c4)C(=O)NC(C)(C)Cn4nc(C(F)(F)F)cc4-c4cc(C(F)(F)F)c(=O)n(C)c4)C5=O)cc3)cnc2n1 [Example 130, (R)-3-(1-(Difluoromethyl)-1H-pyrazol-4-yl)-N-(2-methyl-1-(5-(1-methyl-6-oxo-5-(trifluoromethyl)-1,6-dihydropyridin-3-yl)-3-(trifluoromethyl)-1H-pyrazol-1-yl)propan-2-yl)-2-((1R,3R)-1-(4-(2-methyl-2H-pyrazolo[3,4-b]pyridin-5-yl)phenyl)-4-oxo-5-azaspiro[2.4]heptan-5-yl)propanamide]	74.9 ± 11.6%	104 nM

The remaining compounds from weak to strong by EC50, led by results:

Emax	EC50	Compound
90.8 ± 7.25%	103 nM	Cc1nc(C2CC2)nc(O)c1-c1cc(C(F)(F)F)nn1CC(C)(C)NC(=O)[C@@H](Cc1cnn(C(F)F)c1)N1CC[C@@]2(C[C@@H]2c2ccc(-c3cnc4nn(C)cc4c3)cc2)C1=O [Example 122, (R)-N-(1-(5-(2-Cyclopropyl-4-hydroxy-6-methylpyrimidin-5-yl)-3-(trifluoromethyl)-1H-pyrazol-1-yl)-2-methylpropan-2-yl)-3-(1-(difluoromethyl)-1H-pyrazol-4-yl)-2-((1R,3R)-1-(4-(2-methyl-2H-pyrazolo[3,4-b]pyridin-5-yl)phenyl)-4-oxo-5-azaspiro[2.4]heptan-5-yl)propanamide]
56.1 ± 4.15%	60.1 nM	CNC(=O)Cn1cc(-c2cc(C(F)(F)F)nn2CC(C)(C)NC(=O)[C@@H](Cc2cnn(C(F)F)c2)N2CC[C@@]3(C[C@@H]3c3ccc(-c4cnc5nn(C)cc5c4)cc3)C2=O)cn1 [Example 127, (R)-3-(1-(Difluoromethyl)-1H-pyrazol-4-yl)-N-(2-methyl-1-(1′-(2-(methylamino)-2-oxoethyl)-5-(trifluoromethyl)-1′H,2H-[3,4′-bipyrazol]-2-yl)propan-2-yl)-2-((1R,3R)-1-(4-(2-methyl-2H-pyrazolo[3,4-b]pyridin-5-yl)phenyl)-4-oxo-5-azaspiro[2.4]heptan-5-yl)propanamide]
72.4 ± 2.16%	33.5 nM	[2H]C([2H])([2H])n1cc(-c2cc(C(F)(F)F)nn2CC(C)(C)NC(=O)[C@@H](Cc2cnn(C(F)F)c2)N2CC[C@@]3(C[C@@H]3c3ccc(-c4cnc5nn(C)cc5c4)cc3)C2=O)ccc1=O [Example 120, (R)-3-(1-(Difluoromethyl)-1H-pyrazol-4-yl)-N-(2-methyl-1-(5-(1-(methyl-d3)-6-oxo-1,6-dihydropyridin-3-yl)-3-(trifluoromethyl)-1H-pyrazol-1-yl)propan-2-yl)-2-((1R,3R)-1-(4-(2-methyl-2H-pyrazolo[3,4-b]pyridin-5-yl)phenyl)-4-oxo-5-azaspiro[2.4]heptan-5-yl)propanamide]
93.3 ± 0.0968%	20.3 nM	Cn1cc2cc(-c3ccc([C@H]4C[C@@]45CCN([C@H](Cc4cnn(C(F)F)c4)C(=O)NC(C)(C)Cn4nc(C(F)(F)F)cc4-c4ccc(C(N)=O)[nH]c4=O)C5=O)cc3)cnc2n1 [Example 132, 5-(1-(2-((R)-3-(1-(Difluoromethyl)-1H-pyrazol-4-yl)-2-((1R,3R)-1-(4-(2-methyl-2H-pyrazolo[3,4-b]pyridin-5-yl)phenyl)-4-oxo-5-azaspiro[2.4]heptan-5-yl)propanamido)-2-methylpropyl)-3-(trifluoromethyl)-1H-pyrazol-5-yl)-6-oxo-1,6-dihydropyridine-2-carboxamide]
95.7 ± 6.9%	18.7 nM	Cn1cc2cc(-c3ccc([C@H]4C[C@@]45CCN([C@H](Cc4cnn(C(F)F)c4)C(=O)NC(C)(C)Cn4nc(C(F)(F)F)cc4-c4cccn(CC#N)c4=O)C5=O)cc3)cnc2n1 [Example 123, (R)-N-(1-(5-(1-(Cyanomethyl)-2-oxo-1,2-dihydropyridin-3-yl)-3-(trifluoromethyl)-1H-pyrazol-1-yl)-2-methylpropan-2-yl)-3-(1-(difluoromethyl)-1H-pyrazol-4-yl)-2-((1R,3R)-1-(4-(2-methyl-2H-pyrazolo[3,4-b]pyridin-5-yl)phenyl)-4-oxo-5-azaspiro[2.4]heptan-5-yl)propanamide]
57.9 ± 4.24%	17.7 nM	Cn1cc2cc(-c3ccc([C@H]4C[C@@]45CCN([C@H](Cc4cnn(C(F)F)c4)C(=O)NC(C)(C)Cn4nc(C(F)(F)F)cc4-c4cc(F)c6nccn6c4)C5=O)cc3)cnc2n1 [Example 131, (R)-3-(1-(Difluoromethyl)-1H-pyrazol-4-yl)-N-(1-(5-(8-fluoroimidazo[1,2-a]pyridin-6-yl)-3-(trifluoromethyl)-1H-pyrazol-1-yl)-2-methylpropan-2-yl)-2-((1R,3R)-1-(4-(2-methyl-2H-pyrazolo[3,4-b]pyridin-5-yl)phenyl)-4-oxo-5-azaspiro[2.4]heptan-5-yl)propanamide]

From patent US20260108546A1 (ELI LILLY AND COMPANY, priority 2024, published 2026)
